The values below come from PubChem BioAssay (NCI).

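All cell lines were grown in 96-well plates and treated with compound for 48 hours. Definition used: TGI = concentration required for complete inhibition of growth.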

Among the test systems are DU-145 prostate; HCC-2998 colon; HL-60(TB) leukemia; HOP-62 NSCLC; KM12 colon; LOX IMVI melanoma; MOLT-4 leukemia; NCI-H460 lung; OVCAR-3 ovarian; U251 CNS.
Experiment in all cases: NCI anticancer screen, dose series, 48 h

In the case of `O=C(CC(=O)N1N=C(N2CCCCC2)CC1c1ccccc1)Nc1ccccc1` (stereo not given), the TGI with DU-145 prostate, in the test with HCC-2998 colon, with HL-60(TB) leukemia, in the test with HOP-62 NSCLC, with KM12 colon and with LOX IMVI melanoma was over 100 µM in each case. The TGI in the test on MOLT-4 leukemia, in the test with NCI-H460 lung, in the test on OVCAR-3 ovarian and in the test with U251 CNS was over 100 µM in each case.

For the compound `NC1=CN(CCCO)C2=N/C(=C\c3ccccc3)C(=O)N12`, the TGI in the test with DU-145 prostate, in the test on HCC-2998 colon, in the test on HL-60(TB) leukemia, in the test on HOP-62 NSCLC, in the test on KM12 colon and in the test with LOX IMVI melanoma was over 100 µM each time. The TGI in the test with MOLT-4 leukemia, in the test on NCI-H460 lung, in the test with OVCAR-3 ovarian and with U251 CNS was over 100 µM in each case.

As for `O=C(NC1(c2cc3ccccc3s2)CCCCC1)C1CCC1`, the TGI with DU-145 prostate, in the test on HCC-2998 colon, in the test with HL-60(TB) leukemia, with HOP-62 NSCLC, in the test on KM12 colon and in the test on LOX IMVI melanoma was over 100 µM in each case. Also, the TGI with MOLT-4 leukemia, in the test with NCI-H460 lung, in the test with OVCAR-3 ovarian and in the test with U251 CNS was over 100 µM throughout.

For `CC(C)C1C(=O)N(c2c(F)c(F)c(F)c(F)c2F)C(=S)N1CCS(=O)c1ccccc1` (stereo not given), the TGI worked out at 47.6 µM in the test with DU-145 prostate; 21.8 µM in the test with HCC-2998 colon; 19.2 µM in the test on HL-60(TB) leukemia; 40.8 µM with HOP-62 NSCLC; 32.6 µM with KM12 colon; 28.2 µM in the test on LOX IMVI melanoma. In addition, the TGI was found to be 49.7 µM in the test on MOLT-4 leukemia, 40.1 µM in the test with NCI-H460 lung, 30.5 µM in the test on OVCAR-3 ovarian and 28 µM in the test with U251 CNS.

On to `COc1cc(OC)c2c(c1)OC(c1ccccc1)CC2=O` (stereo not given), for which the TGI in the test on DU-145 prostate, in the test on HCC-2998 colon, in the test on HL-60(TB) leukemia, in the test with HOP-62 NSCLC, with KM12 colon and in the test with LOX IMVI melanoma was over 10 µM throughout. The TGI in the test on MOLT-4 leukemia, in the test on NCI-H460 lung, in the test on OVCAR-3 ovarian and in the test with U251 CNS was over 10 µM throughout.

As for `C=CCN(c1cc(OCc2ccccc2)c2[nH]cc(C)c2c1)S(C)(=O)=O`, the TGI in the test with DU-145 prostate, in the test with HCC-2998 colon, in the test with HL-60(TB) leukemia, with HOP-62 NSCLC, with KM12 colon and in the test on LOX IMVI melanoma was over 100 µM throughout. The TGI in the test with MOLT-4 leukemia, in the test with NCI-H460 lung, in the test on OVCAR-3 ovarian and in the test with U251 CNS was over 100 µM each time.

In the case of `CC(C)OC(=O)c1ccc(CCC2=CC(=O)C=CC2=O)cc1`, the TGI with DU-145 prostate came to 37 µM; in the test with HCC-2998 colon, 32.6 µM; with HL-60(TB) leukemia it was 7.56 µM; in the test with HOP-62 NSCLC, 47.4 µM; with KM12 colon, 27 µM; in the test with LOX IMVI melanoma, 14.2 µM. Also, the TGI turned out to be 8.05 µM in the test on MOLT-4 leukemia, 54.1 µM in the test with NCI-H460 lung, 17 µM in the test with OVCAR-3 ovarian and 37.8 µM in the test on U251 CNS.

For the compound `O=c1cc(N=Nc2ccc(Br)cc2)[nH]c(=S)[nH]1`, the TGI was over 100 µM with DU-145 prostate; 38.6 µM with HCC-2998 colon; 58.6 µM in the test on HL-60(TB) leukemia; over 100 µM with HOP-62 NSCLC; over 100 µM with KM12 colon; 29.4 µM in the test with LOX IMVI melanoma. In addition, the TGI is 63.3 µM with MOLT-4 leukemia, over 100 µM with NCI-H460 lung, 28.9 µM in the test with OVCAR-3 ovarian and over 100 µM in the test on U251 CNS.

For `CCCCCCCCCCCCCCCCCc1cccc(OCOCCOC)c1C(=O)O`, the TGI came to 33.2 µM with DU-145 prostate; 36 µM with HCC-2998 colon; 50.8 µM in the test on HL-60(TB) leukemia; 38.9 µM in the test on HOP-62 NSCLC; 34.1 µM in the test on KM12 colon; 61.8 µM in the test with LOX IMVI melanoma. The TGI with MOLT-4 leukemia was determined as 44.1 µM; with NCI-H460 lung, 41 µM; in the test on OVCAR-3 ovarian, 36.9 µM; in the test with U251 CNS, 41.6 µM.

`COC(=O)/C=C1\C(=O)N(C(C)=O)c2ccc(Br)cc21`: the TGI is 25.5 µM in the test on DU-145 prostate; 31.9 µM in the test on HCC-2998 colon; 5.66 µM in the test on HL-60(TB) leukemia; 25.9 µM in the test with HOP-62 NSCLC; 28.6 µM in the test on KM12 colon; 20.3 µM in the test with LOX IMVI melanoma. Further, the TGI in the test with MOLT-4 leukemia came to 10 µM; with NCI-H460 lung it was 30.4 µM; in the test on OVCAR-3 ovarian it was 15.7 µM; with U251 CNS, 20 µM.

In the case of `O=P12N(CCN1c1ccccc1)CCN2c1ccccc1`, the TGI in the test on DU-145 prostate, in the test with HCC-2998 colon, in the test with HL-60(TB) leukemia, in the test with HOP-62 NSCLC, with KM12 colon and with LOX IMVI melanoma was over 100 µM throughout. Also, the TGI in the test on MOLT-4 leukemia, in the test on NCI-H460 lung, in the test on OVCAR-3 ovarian and in the test with U251 CNS was over 100 µM each time.
